From US20200261534A1, “NEW TREATMENTS OF MULTIPLE MYELOMA” (priority 2017, published 2020)
Like-named read-outs stand apart in the source and are kept apart here. Starred links: 1 amine or outer side, 2 acyl side, 3 side chain; linkers in the order of their positions; H or OH if unused. Positions of bridges follow the written chain, without caps; N, C: chain ends. Non-standard residues stand in square brackets, D forms with d. Residues, ends and D or L forms follow the SMILES beside them. ξ: configuration not given here. Biphenyl(4,4'-CH2)2 = c1cc(-c2ccc(C[*:2])cc2)ccc1C[*:1]; ξαMeNle(6-ylidene) = CC(CCCC=[*:3])(N[*:1])C(=O)[*:2]; X1 = CC(CCCCCCC=[*:3])(N[*:1])C(=O)[*:2]; Octanediyl(1,8) = C(CCCC[*:2])CCC[*:1]; ξC = NC(CS)C(=O)O

What was measured:
Type in all cases: cell-based
[1] = test system: NCI-H128, epithelial (small cell lung cancer); assay: MTT viability assay, NCI-H128
Method: NCI-[…], epithelial (small cell lung cancer), ATCC: HTB-120TM […] During the amplification step and the assays adherent cells were rinsed with DPBS (Dulbecco's Phosphate Buffered Saline, Sigma D1283) three times and afterward treated for 5 minutes with trypsin ([…]) (Gibco-BRL, 15400054) in solution of DPBS at 37° C., and, once detached, transferred in the culturing medium. No-adherent cells were centrifuged and transferred in the culturing medium. Cells were counted in a Neubauer chamber after labelling with Tripan-Blue. […] Cells were seeded at a density of 10,000 cells/well in 100 μl of medium in 96 well plates. […] Controls are the untreated cells. Each experiment was performed in triplicate. Cells were incubated with the compounds at the indicated concentrations during 24-72 h in incubator under CO2 atmosphere at 37° C. […] Stock solution of MTT (475989 Calbiochem) was 5 mg/ml in PBS. 1×.10 μl/well of MTT solution were added and the plate was incubated for 3-4 hr. […] Plates were incubated for 16 h at room temperature under orbital shaking. Absorbance at 570 nm was finally measured. […] The dose/response curve was fitted through the sigmoidal equation dose-response (variable slope) and the IC50 values were calculated as follow: […]

[2] = test system: RPMI-8266-LR5, lymphoblast (myeloma), selected for resistance to Melphalan
Method: RPMI-8266-LR5, lymphoblast (myeloma), selected for resistance to Melphalan (Bellamy W T et al., Cancer Res. 1991 Feb. 1; 51(3):995-1002).
(§1) All cell lines were cultured in incubator at 37° C. in RPMI-1640 (Sigma R8758) medium with 10% of fetal bovine serum inactivated (FBS) and 2 mM glutamine (Sigma G7513). During the amplification step cells were centrifuged and transferred into the culturing medium. Cells were counted in a Neubauer chamber after labelling with Tripan-Blue.
(§2) Cells were seeded at a density of 10000 cells/well in 100 μl of medium in 96 well plates. After 24 h, the compounds to be tested were added to calculate the dose/response curve at the starting concentration of 100 μM with serial dilutions (1:1). Controls are the untreated cells. Each experiment was performed in triplicate.
(§3) Cells were incubated with the peptidomimetic compound (S09) at the indicated concentrations during 24-72 h in incubator under CO2 atmosphere at 37° C. Then, cell viability was measured by means of MTT (3-(4,5-dimethylthiazol-2-yl)-2,5-diphenyltetrazolium bromide) assay. Stock solution of MTT (475989 Calbiochem) was 5 mg/ml in PBS. 1×.10 μl/well of MTT solution were added and the plate was incubated for 3-4 hr. The medium was discarded and 100 μl of extracting buffer (PBS 1×, 15% SDS, 50% […] N,N-Dimethylformamide, pH 4.7) were added to each well. Plates were incubated for 16 h at room temperature under orbital shaking. Absorbance at 570 nm was finally measured. As negative control (experiment noise) 3 wells were treated with 20 μl/well of a solution of SDS 10% in H2O.
(§4) Data analysis was performed calculating the percentage of cell viability normalized vs. the values of negative control, which was considered equal to 100%. The dose/response curve was fitted through the sigmoidal equation dose-response (variable slope) and the IC50 values were calculated as follow:
(§5) Y=Bottom+(Top−Bottom)/(1+10^{[(LogIC50−X)*HillSlope]},
(§6) All cell lines were cultured in incubator at 37° C. in RPMI-1640 (Sigma R8758) medium with 10% of fetal bovine serum inactivated (FBS) and 2 mM glutamine (Sigma G7513).
as §2, with “of 10,000” for “of 10000”, “of 40” for “of 100”
as §3, with “compounds” for “compound (S09)”

[3] = test system: MBA-MD231, epithelial (breast cancer); assay: MTT viability assay, MBA-MD231
Method: MBA-MD231, epithelial (breast cancer), ECACC: 86012803 […] During the amplification step and the assays adherent cells were rinsed with DPBS (Dulbecco's Phosphate Buffered Saline, Sigma D1283) three times and afterward treated for 5 minutes with trypsin ([…]) (Gibco-BRL, 15400054) in solution of DPBS at 37° C., and, once detached, transferred in the culturing medium. No-adherent cells were centrifuged and transferred in the culturing medium. Cells were counted in a Neubauer chamber after labelling with Tripan-Blue. […] Cells were seeded at a density of 10,000 cells/well in 100 μl of medium in 96 well plates. […] Controls are the untreated cells. Each experiment was performed in triplicate. Cells were incubated with the compounds at the indicated concentrations during 24-72 h in incubator under CO2 atmosphere at 37° C. […] Stock solution of MTT (475989 Calbiochem) was 5 mg/ml in PBS. 1×.10 μl/well of MTT solution were added and the plate was incubated for 3-4 hr. […] Plates were incubated for 16 h at room temperature under orbital shaking. Absorbance at 570 nm was finally measured. […] The dose/response curve was fitted through the sigmoidal equation dose-response (variable slope) and the IC50 values were calculated as follow: […]

[4] = test system: U266-LR7, lymphoblast (myeloma), selected for resistance to Melphalan
Method: U266-LR7, lymphoblast (myeloma), selected for resistance to Melphalan (Alvarez-Fernández et al. Clin Cancer Res. 2013 May 15; 19(10):2677-87).
as §1, §2, §3, §4, §5
U266-LR7, lymphoblast (myeloma), selected for resistance to Melphalan (Alvarez-Fernandez et al. Clin Cancer Res. 2013 May 15; 19(10):2677-87).
as §6
as §2, with “of 10,000” for “of 10000”, “of 40” for “of 100”
as §3, with “compounds” for “compound (S09)”

[5] = test system: RPMI-8266, lymphoblast (myeloma); assay: MTT viability assay, RPMI-8266
Method: RPMI-8266, lymphoblast (myeloma), ATCC® CCL155™
as §1, §2, §3, §4, §5, §6
as §2, with “of 10,000” for “of 10000”, “of 40” for “of 100”
as §3, with “compounds” for “compound (S09)”

[6] = RPMI-LR5, 72 hr, Table 14, read-out: IC50 after 72 hr values
[7] = U266LR7, 24 hr, Table 13, read-out: IC50 after 24 hr values
[8] = U266LR7, 72 hr, Table 14, read-out: IC50 after 72 hr values
[9] = RPMI-LR5, 24 hr, Table 13, read-out: IC50 after 24 hr values

SMILES	IC50 [1]	IC50 [2, 6]	IC50 [3]	IC50 [4, 7]	IC50 [4, 8]	IC50 ([5]; 24 h)	IC50 ([5]; 72 h)	IC50 [2, 9]	IC50 ([1]; NCI-H128, MTT, 24-72 h, Table 12, read-out: IC50 values)	IC50 ([2]; RPMI-LR5 (resistant to Melphalan), MTT, 24-72 h, Table 7, read-out: IC50 values in μM for S09)	IC50 ([3]; MBA-MD231, MTT, 24-72 h, Table 12, read-out: IC50 values)	IC50 ([4]; U266LR7 (resistant to Melphalan), MTT, 24-72 h, Table 7, read-out: IC50 values in μM for S09)	IC50 ([5]; RPMI, MTT, 24-72 h, Table 7, read-out: IC50 values in μM for S09)
CC[C@H](C)[C@H](NC(=O)[C@H](Cc1ccc(O)cc1)NC(=O)[C@H](C)NC(=O)C1CSCCCCCCCCSCC(NC(=O)[C@H](CCCCN)NC(=O)[C@@H]2CCCN2C(=O)[C@H](C)N)C(=O)N[C@@H](C(C)C)C(=O)N[C@@H]([C@@H](C)CC)C(=O)N[C@@H](CC(C)C)C(=O)N[C@@H](CCCCN)C(=O)N[C@@H](CCCCN)C(=O)N[C@@H](C)C(=O)N1)C(=O)N[C@@H](CC(C)C)C(=O)N[C@@H](CO)C(=O)O (stereo partly drawn) [IDP-P1708160] (H-APK[ξC]VILKKA[ξC]AYILS-OH; linker 4-11 via Octanediyl(1,8); N-terminus and C-terminus assumed)	16 ± 1 µM	7.5 µM	42 ± 2 µM	2.5 µM	2.5 µM	15 µM	15 µM						
CC[C@H](C)[C@H](NC(=O)[C@H](Cc1ccc(O)cc1)NC(=O)[C@H](C)NC(=O)[C@@H]1CSCc2ccc(cc2)-c2ccc(cc2)CSC[C@H](NC(=O)[C@H](CCCCN)NC(=O)[C@@H]2CCCN2C(=O)[C@H](C)N)C(=O)N[C@@H](C(C)C)C(=O)N[C@@H]([C@@H](C)CC)C(=O)N[C@@H](CC(C)C)C(=O)N[C@@H](CCCCN)C(=O)N[C@@H](CCCCN)C(=O)N[C@@H](C)C(=O)N1)C(=O)N[C@@H](CC(C)C)C(=O)N[C@@H](CO)C(=O)O [IDP-P1708161] (H-APKCVILKKACAYILS-OH; linker 4-11 via Biphenyl(4,4'-CH2)2; N-terminus and C-terminus assumed)	14 ± 1 µM	35 µM	29 ± 2 µM			5 µM	7.5 µM	35 µM					
CC[C@H](C)[C@H](NC(=O)[C@H](Cc1ccc(O)cc1)NC(=O)[C@H](C)NC(=O)C1(C)CCCC=CCCCCCCC(C)(NC(=O)[C@H](CCCCN)NC(=O)[C@@H]2CCCN2C(=O)[C@H](C)N)C(=O)N[C@@H](C(C)C)C(=O)N[C@@H]([C@@H](C)CC)C(=O)N[C@@H](CC(C)C)C(=O)N[C@@H](CCCCN)C(=O)N[C@@H](CCCCN)C(=O)N[C@@H](C)C(=O)N1)C(=O)N[C@@H](CC(C)C)C(=O)N[C@@H](CO)C(=O)O (stereo partly drawn) [S09, APKXVILKKAXAYILS—OH] (H-APK[X1]VILKKA[ξαMeNle(6-ylidene)]AYILS-OH; staple 4-11; N-terminus assumed)									3 ± 1 µM	11.4 µM	4.9 ± 0.3 µM	9.7 µM	7.4 µM
CC[C@H](C)[C@H](NC(=O)[C@H](Cc1ccc(O)cc1)NC(=O)[C@H](C)NC(=O)C1(C)CCCC=CCCCCCCC(C)(NC(=O)[C@H](CCCCN)NC(=O)[C@@H]2CCCN2C(=O)[C@H](C)N)C(=O)N[C@@H](C(C)C)C(=O)N[C@@H]([C@@H](C)CC)C(=O)N[C@@H](Cc2ccccc2)C(=O)N[C@@H](CCCCN)C(=O)N[C@@H](CCCCN)C(=O)N[C@@H](C)C(=O)N1)C(=O)N[C@@H](CC(C)C)C(=O)N[C@@H](CO)C(=O)O (stereo partly drawn) [S14, APKXVIFKKAXAYILS—OH] (H-APK[X1]VIFKKA[ξαMeNle(6-ylidene)]AYILS-OH; staple 4-11; N-terminus assumed)		10 µM		10 µM	10 µM	10 µM	10 µM	10 µM					
